6 molecules from US10150760B2, “Compounds for use in preparing heterocyclic triazole agonists of the APJ receptor” (AMGEN INC., priority 2016, dated 2018) can be followed below.

Bounds are passed on as bounds.

The target in one assay is human APJ receptor (Homo sapiens (Human), UniProt P35414). As to the kind of experiment: [35S]GTPγS binding assay on membranes from CHO cells stably expressing human APJ receptor. It is filed as biochemical. The settings on record: read-out: Activity hAPJ SPA EC50 IP. In short, it runs like this:
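Agonist-driven [35S]GTPγS (0.2 nM) binding was measured over 90 min at room temperature on human APJ-expressing CHO membranes with bead capture, in buffer containing 3 μM GDP, 200 mM NaCl and 5 mM MgCl2 (pH 7.5). Excess unlabelled GTPγS (100 μM) gave nonspecific signal; EC50 from non-linear fits.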

Assay [1] has as its system isolated perfused rat hearts. As to the kind of experiment: Ex vivo isolated perfused rat heart assay (Langendorff apparatus), load independent inotropic and lusitropic effects. More on the design: species or system Sprague Dawley rat. The conditions noted are these: ex vivo isolated perfused rat heart, percent change over vehicle; for Isolated Heart Assay dP/dtmax (%): contractility; for Isolated Heart Assay dP/dtmin (%): relaxation. An excerpt: Evidence for Load Independent Inotropic Effects with APJ Agonists Using Ex Vivo Assay (Isolated Perfused Rat Hearts)
Naive Sprague Dawley® SD rats (Harlan laboratories (Livermore, Calif. USA)) were anaesthetized and hearts were excised followed by cannulation in the Langendorff apparatus (Harvard apparatus, Holliston, Mass. USA) via aorta. The heart was perfused retrograde with modified oxygenated Krebs-Henseleit buffer (Skrzypiec-Spring M et al., (2007) J. Pharmacol Toxicol Methods 55: 113-126). The pressure of the solution causes the aortic valve to shut and the perfusate is then forced into the ostium and the coronary vessels. This allows the heart to beat for several h. A balloon was inserted into the left ventricle (LV) to measure dP/dtmax (derivative of left ventricular pressure) as an index of cardiac contractility. The APJ agonist was perfused constantly in a dose dependent manner into the heart to examine cardiac contractility.
Example 49.0 was infused at different concentrations and load independent contractility was measured by index of LV dP/dtmax and the results are expressed as a percent change over vehicle. […] Example 49.0 was infused at different concentrations and load independent lusitropic effect (relaxation) was measured by index of LV dP/dtmin where results are expressed as percent change over vehicle. […] Example 60.0 was infused at different concentrations and load independent contractility was measured by index of LV dP/dtmax and the results are expressed as a percent change over vehicle. […] Example 60.0 was infused at different concentrations and load independent lusitropic effect (relaxation) was measured by index of LV dP/dtmin where results are expressed as percent change over vehicle.

Sequence of human APJ receptor (P35414 whole entry): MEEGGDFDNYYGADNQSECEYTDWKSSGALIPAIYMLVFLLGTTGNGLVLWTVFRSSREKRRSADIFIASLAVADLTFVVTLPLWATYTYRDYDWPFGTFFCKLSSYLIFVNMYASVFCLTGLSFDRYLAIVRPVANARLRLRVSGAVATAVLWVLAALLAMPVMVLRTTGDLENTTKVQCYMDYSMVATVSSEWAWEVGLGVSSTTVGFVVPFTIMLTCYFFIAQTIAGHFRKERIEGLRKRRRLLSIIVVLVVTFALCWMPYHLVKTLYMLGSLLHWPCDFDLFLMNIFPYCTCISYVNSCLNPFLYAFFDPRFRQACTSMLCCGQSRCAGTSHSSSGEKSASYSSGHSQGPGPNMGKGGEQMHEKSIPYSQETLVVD

For `COc1cccc(OC)c1-n1c(NS(=O)(=O)[C@@H](C)[C@H](C)c2ncc(Cl)cn2)nnc1[C@@H]1COCCO1` (single isomer, unassigned) [Example 40.0, (2S,3R)-3-(5-chloro-2-pyrimidinyl)-N-(4-(2,6-dimethoxyphenyl)-5-((2R)-1,4-dioxan-2-yl)-4H-1,2,4-triazol-3-yl)-2-butanesulfonamide or (2S,3R)-3-(5-chloro-2-pyrimidinyl)-N-(4-(2,6-dimethoxyphenyl)-5-((2S)-1,4-dioxan-2-yl)-4H-1,2,4-triazol-3-yl)-2-butanesulfonamide], the EC50 at human APJ receptor was found to be 14 nM. Further, in assay [1], the “Isolated Heart Assay dP/dtmax (%)” value was “No effect” and the “Isolated Heart Assay dP/dtmin (%)” value was “No effect”.

In the case of `COc1cccc(OC)c1-n1c(NS(=O)(=O)[C@@H](C)[C@H](C)c2ncc(Cl)cn2)nnc1[C@H]1CCCO1` (single isomer, unassigned) [Example 47.0, (2S,3R)-3-(5-chloro-2-pyrimidinyl)-N-(4-(2,6-dimethoxyphenyl)-5-((2S)-tetrahydro-2-furanyl)-4H-1,2,4-triazol-3-yl)-2-butanesulfonamide or (2S,3R)-3-(5-chloro-2-pyrimidinyl)-N-(4-(2,6-dimethoxyphenyl)-5-((2R)-tetrahydro-2-furanyl)-4H-1,2,4-triazol-3-yl)-2-butanesulfonamide], on human APJ receptor, the EC50 was determined as 0.72 nM. In addition, in assay [1], the “Isolated Heart Assay dP/dtmax (%)” value came to 6.5% and the “Isolated Heart Assay dP/dtmin (%)” value was 1.0%.

For `COc1cccc(OC)c1-n1c(NS(=O)(=O)[C@@H](C)[C@H](C)c2ncc(C)cn2)nnc1[C@H]1CCCO1` (single isomer, unassigned) [Example 50.0, (2S,3R)-N-(4-(2,6-dimethoxyphenyl)-5-((S)-tetrahydrofuran-2-yl)-4H-1,2,4-triazol-3-yl)-3-(5-methylpyrimidin-2-yl)butane-2-sulfonamide or (2S,3R)-N-(4-(2,6-dimethoxyphenyl)-5-((R)-tetrahydrofuran-2-yl)-4H-1,2,4-triazol-3-yl)-3-(5-methylpyrimidin-2-yl)butane-2-sulfonamide], the EC50 on human APJ receptor is 28 nM. In addition, in assay [1], the “Isolated Heart Assay dP/dtmax (%)” value is 2.0% and the “Isolated Heart Assay dP/dtmin (%)” value was “No effect”.

For the molecule “(2S,3R)-N-(4-((1r,2R,6S)-2,6-dimethoxycyclohexyl)-5-((3S)-tetrahydro-3-furanyl)-4H-1,2,4-triazol-3-yl)-3-(5-methyl-2-pyrimidinyl)-2-butanesulfonamide or (2S,3R)-N-(4-((1r,2R,6S)-2,6-dimethoxycyclohexyl)-5-((3R)-tetrahydro-3-furanyl)-4H-1,2,4-triazol-3-yl)-3-(5-methyl-2-pyrimidinyl)-2-butanesulfonamide [Example 4.0]”, at human APJ receptor, the EC50 amounted to 890 nM.

With “(2S,3R)-N-(4-((1r,2R,6S)-2,6-dimethoxycyclohexyl)-5-((3S)-tetrahydro-3-furanyl)-4H-1,2,4-triazol-3-yl)-3-(5-methyl-2-pyrimidinyl)-2-butanesulfonamide or (2S,3R)-N-(4-((1r,2R,6S)-2,6-dimethoxycyclohexyl)-5-((3R)-tetrahydro-3-furanyl)-4H-1,2,4-triazol-3-yl)-3-(5-methyl-2-pyrimidinyl)-2-butanesulfonamide [Example 5.0]”, the half-maximal effective concentration (EC50) on human APJ receptor was greater than 4200 nM.

Turning to “((2S,3R)-N-(4-(2,6-dimethoxyphenyl)-5-((R)-1,4-dioxan-2-yl)-4H-1,2,4-triazol-3-yl)-3-(5-methylpyrimidin-2-yl)butane-2-sulfonamide or (2S,3R)-N-(4-(2,6-dimethoxyphenyl)-5-((S)-1,4-dioxan-2-yl)-4H-1,2,4-triazol-3-yl)-3-(5-methylpyrimidin-2-yl)butane-2-sulfonamide [Example 206.0]”, the EC50 at human APJ receptor was 35 nM.
